# Experiment: Local delivery of drug in charged liposomes/micelles from a hydrogel-coated metal mesh catheter by iontophoresis
# Conditions: iontophoresis 5 mA, 8 V, 10 minutes
# Procedure: Liposome or micelles were prepared by mixing 3.0 mg of phosphatidylcholine, 3.0 mg of cholesterol and 0.3 mg of phosphatidylserine in a test tube. Chloroform (200 microliters) was added and the solution was evaporated to dryness in a test tube. 7-Amino Actinomycin D (500 mg) was dissolved in 8 mM CaCl2 for a final concentration of 0.5 mg/ml. The 7-Amino Actinomycin D solution was added to the lipid mixture in small aliquots with constant stirring. The hydrogel-coated metal mesh catheter was placed in the 7-amino Actinomycin D/liposome or micelle mixture and then used for drug delivery in the following manner: The hydrogel-coated metal mesh catheter was placed in the 7-Amino Actinomycin D/liposome or micelle mixture and then removed. In some cases, the hydrogel-coated mesh portion of the catheter was covered with a retractable sheath to prevent loss of the compound during the transport of the catheter from the arterial access site to the target site. When the catheter was positioned at the target site the sheath was retracted and the mesh was expanded against the arterial wall. Iontophoersis was performed by applying an electrical current to the mesh. […] In this example the iontophoresis parameters were 5 mA, and 8 V, applied for 10 minutes.
smiles,measurement,setting,value
Cc1c2oc3c(C)c(N)cc(C(=O)N[C@@H]4C(=O)N[C@H](C(C)C)C(=O)N5CCC[C@H]5C(=O)N(C)CC(=O)N(C)[C@@H](C(C)C)C(=O)O[C@@H]4C)c3nc-2c(C(=O)N[C@@H]2C(=O)N[C@H](C(C)C)C(=O)N3CCC[C@H]3C(=O)N(C)CC(=O)N(C)[C@@H](C(C)C)C(=O)O[C@@H]2C)c(N)c1=O [7-Amino Actinomycin D],distribution of the fluorescent compound in the vessel after local delivery,"7-Amino Actinomycin D/liposome or micelle mixture (phosphatidylcholine, cholesterol, phosphatidylserine)",throughout the vessel wall and in the outer layer of the vessel
same,localization in the cells of the vessel after local delivery,7-Amino Actinomycin D/liposome or micelle mixture,evidence of localization of the 7-Amino Actinomycin D in the nuclei of the cells
